Test: Antiinflammatory activity in rat polymorphonuclear leukocytes assessed as inhibition of platelet activating factor-induced release of beta-glucuronidase at 10 uM after 15 mins
Assay type: functional
Conditions: 0.25 h

Question: For `COc1cc(O[C@@H]2O[C@H](COC(=O)c3ccc(O[C@@H]4O[C@H](COC(=O)c5cc(OC)c(O)c(OC)c5)[C@@H](O)[C@H](O)[C@H]4O)c(OC)c3)[C@@H](O)[C@H](O)[C@H]2O)ccc1O`, which inhibition at 10 µM is on record?
Answer: Its inhibition at 10 µM is 25.2%.

Question: For `COc1cc(C(=O)OC[C@H]2O[C@@H](OC(=O)c3cc(OC)c(O)c(OC)c3)[C@H](O)[C@@H](O)[C@@H]2O)ccc1O[C@@H]1O[C@H](COC(=O)c2cc(OC)c(O)c(OC)c2)[C@@H](O)[C@H](O)[C@H]1O`, which inhibition at 10 µM is on record?
Answer: The inhibition at 10 µM was 6%.

Question: Which inhibition at 10 µM does the source give for `C[C@@H]1C(=O)O[C@H]2[C@H](O)[C@@]34[C@H]5C[C@@H](C(C)(C)C)[C@]36[C@@H](OC(=O)[C@@H]6O)O[C@@]4(C(=O)O5)[C@@]12O` [GINKOLIDE B] here?
Answer: Its inhibition at 10 µM is 78.8%.

Question: Which inhibition at 10 µM does the source give for `COC(=O)C1=CO[C@@H](O[C@@H]2O[C@H](CO[C@@H]3O[C@@H](C)[C@H](O)[C@@H](O)[C@H]3O)[C@@H](O)[C@H](O)[C@H]2O)[C@@H]2C(CO)=CC[C@H]12` here?
Answer: Its inhibition at 10 µM is 44.8%.

Question: For `COc1cc(C(=O)O)ccc1O[C@@H]1O[C@H](COC(=O)c2ccc(O[C@@H]3O[C@H](COC(=O)c4cc(OC)c(O)c(OC)c4)[C@@H](O)[C@H](O)[C@H]3O)c(OC)c2)[C@@H](O)[C@H](O)[C@H]1O`, which inhibition at 10 µM is on record?
Answer: The inhibition at 10 µM was 60.2%.

Question: For `COc1cc(O)ccc1O[C@@H]1O[C@H](COC(=O)c2ccc(O[C@@H]3O[C@H](COC(=O)c4cc(OC)c(O)c(OC)c4)[C@@H](O)[C@H](O)[C@H]3O)c(OC)c2)[C@@H](O)[C@H](O)[C@H]1O`, which inhibition at 10 µM is on record?
Answer: The inhibition at 10 µM was 43.6%.

Reference: ChEMBL document CHEMBL1149854, “Glycosides from the bark of Adina polycephala” (2008)
